Source: patent US20080261911A1, “Uses of diphenyl/diphenylamine carboxylic acids” (priority 2006, published 2008)

Key:
[1] = test system: orthotopically implanted human pancreatic L3.6p1 cancer cells; assay: Orthotopic pancreatic tumor model in athymic nude mice; details: gemcitabine 50 mg/kg
Description: Median tumor volumes (FIG. 8A) and weights (FIG. 8B) in athymic nude mice treated orthotopically with L3.6pl cells, and corn oil (control), tolfenamic acid (25 and 50 mg/kg), and gemcitabine (50 mg/kg) were determined. […] Tumors from the various treatment groups were analyzed for Sp1, Sp3, Sp4, and VEGF protein expression by Western blot analysis. […] Immunostaining is shown for VEGF (FIG. 8D), and CD31 (FIG. 8E). Pancreatic tumor sections from animals treated with solvent (control), gemcitabine (50 mg/kg) and tolfenamic acid (25 and 50 mg/kg) were immunostained with VEGF and CD31 antibodies.
Male athymic nude mice (NCI-nu) are purchased from the Animal Production Area of the National Cancer Institute Frederick Cancer Research and Development Center, housed and maintained under specific pathogen-free conditions in accordance with current regulations and standards of the United States Department of Agriculture. Injection of L3.6pl cells (with greater than 90% viability is performed as previously described (Bruns et al, 1999). Seven days after implantation of tumor cells into the pancreas of each mouse, five mice are killed to confirm the presence of tumor lesions.
Mice (10 animals per treatment group) are randomized to receive one of the following treatments: (1) thrice weekly oral administrations of vehicle solution which will serve as a control group; (2) thrice weekly oral administrations of at least three non-steroidal anti-inflammatory drugs at doses of 10, 25, and 50 mg/kg/day; (3) twice weekly intraperitoneal injections of 50, 75, and 100 mg/kg/day gemcitabine alone; and (4) combinations of gemcitabine and non-steroidal anti-inflammatory drugs. Mice are sacrificed on day 35 and body weights measured. Primary tumors in the pancreas are excised, measured, weighed. For immunohistochemistry (IHC) and hematoxylin and eosin (H&E) staining procedures, one part of the tumor tissue is fixed in formalin and embedded in paraffin, and another part is embedded in TISSUE-TEK® O.C.T. compound, rapidly frozen in liquid nitrogen, and stored at −70° C. Visible liver metastases are counted with the aid of a dissecting microscope, and the tissues processed for hematoxylin and eosin staining.
Paraffin-embedded tissues are used for identification of Sp proteins, VEGFR2p27 and vascular endothelial growth factor. Tissue sections ([…] thick) are mounted on positively charged SUPERFROST slides (Fischer Scientific, Co, Houston, Tex.) and dried overnight. Sections are deparaffinized in xylene and treated with a graded series of alcohol [100, 95, and 80% ethanol (v/v) in double distilled H2O] and rehydrated in phosphate buffered saline (pH 7.5). Tissues are treated with pepsin (Biomeda) for 15 min at 37° C. and washed with phosphate buffered saline. A positive reaction is visualized by incubating the slides with stable 3,3′-diaminobenzidine for 10-20 min. Sections are rinsed with distilled water, counterstained with Gill's hematoxylin for 1 min, and mounted with UNIVERSAL MOUNT (Research Genetics). […] Tumor sample lysates are also examined by western blot analysis for the same proteins.
The potential anti-tumorigenic and anti-angiogenic activity of tolfenamic acid against pancreatic tumors was investigated in an orthotopic athymic nude mouse model. L3.6pl cells were used for this study based on their aggressive growth and production of liver metastases (Bruns et al, 1999; Dubois et al, 1998).

[2] = test system: Sp1, Sp3, and Sp4 proteins; assay: Western blot of Sp1, Sp3 and Sp4 protein expression in Panc-1 cells; format: cell-based; details: for Sp1, Sp3, and Sp4 protein expression / order of potency for decreased expression of Sp1, Sp3, and Sp4 proteins: 50 μM; for Sp1, Sp3, and Sp4 protein expression: Western blot, vs DMSO
Panc-1 cells = assay: Cell proliferation assay, Panc-1 cells; format: cell-based; details: for growth of Panc-1 pancreatic cancer cells: different concentrations, 6 days, cell counting
Description: FIGS. 6A-6E show comparative effects of non-steroidal anti-inflammatory drugs on Panc-1 cell proliferation and Sp protein expression. Effects of tolfenamic acid (FIG. 6A), ampiroxicam (FIG. 6B), naproxen (FIG. 6C), and diclofenac sodium (FIG. 6D) on Panc-1 cell proliferation. Panc-1 cells were treated with different concentrations of non-steroidal anti-inflammatory drugs for 6 days, and the number of cells were determined on days 2, 4, and 6 by cell counting techniques. […] Panc-1 cells were treated with DMSO, 150 μM ampiroxicam, 150 μM naproxen, and 50 μM tolfenamic acid for 48 hr, and levels of Sp proteins and the cleaved poly (ADP-ribose) polymerase (PARP) protein were determined in whole cell lysates by Western blot analysis. […] Panc1, Panc28 and L3.6pl cells are seeded in DMEM/F12 media with 5% FBS and treated the next day with either vehicle (DMSO) or with the indicated compounds' concentrations. Cells are counted at the indicated times using a Z1™ COULTER COUNTER® cell counter. Each experiment is carried out in triplicate and results expressed as means ±SD for each determination.

[3] = test system: cleaved poly (ADP-ribose) polymerase (PARP) protein; assay: Apoptosis: cleaved PARP in Panc-1 cells, Western blot; format: cell-based; details: 150 μM, 48 hr
Description: Cells are washed once with phosphate buffered saline PBS and collected by scraping in 200 μL of lysis buffer [50 mM HEPES, 0.5M sodium chloride, 1.5 mM magnesium chloride, 1 mM EGTA, 10% (v/v) glycerol, 1% Triton X-100, 5 μL/ml of Protease Inhibitor Cocktail (Sigma)]. The lysates from the cells are incubated on ice for 1 hr with intermittent vortexing followed by centrifugation at 40,000 g for 10 min at 4° C. Equal amounts of protein (60 μg) from each treatment group are diluted with loading buffer, boiled and loaded onto 10 and 12.5% SDS-polyacrylamide gel. […] Samples are electrophoresed, transferred to membranes, and proteins detected by incubation with polyclonal primary antibodies Sp1, Sp3, Sp4, HDAC, VEGF (a-20), c-Met, surviving, VEGF, cleaved PARP, and β-tubulin (H-235) followed by blotting with appropriate horseradish peroxidase-conjugated secondary antibody as previously described (Abdelrahim et al, 2004). After autoradiography, band intensities are determined by a scanning laser densitometer (Sharp Electronics Corporation, Mahwah, N.J.) using ZERO-D SCANALYTICS software (Scanalytics Corporation, Billerica, Mass.).

[4] = test system: Sp1, Sp3 and Sp4 in colon cancer cells; details: cited from earlier work
[5] = test system: VEGF promoter constructs pVEGF1 and pVEGF2; assay: VEGF promoter (pVEGF1/pVEGF2) luciferase transactivation in Panc-1 cells; format: cell-based
Description: Transfection of Panc-1 cells with pVEGF1 and pVEGF2 and treatment with 50 μM ampiroxicam and tolfenamic acid (FIGS. 2A, 2B) or diclofenac sodium (FIGS. 2C, 2D) with pVEGF1 or pVEGF2 constructs. Cells were transfected with pVEGF1 or pVEGF2 treated with DMSO, 50 μM ampiroxicam, tolfenamic acid, or diclofenac sodium, and luciferase activity determined. Transfection of L3.6pl cells with pVEGF1 (FIG. 2E) or pVEGF2 constructs (FIG. 2F). […] Panc-1 cells were transfected with pVEGF2, treated with 20, 40, 60 or 80 μM ampiroxicam or tolfenamic acid, and luciferase determined. Results presented herein are means ±SE for three separate determinations per treatment group, and significant (p<0.05) decrease in luciferase activity is indicated by an asterisk.
Cells are cultured in 6-well plates in 2 ml of DME/F12 medium supplemented with 5% fetal bovine serum. After 16-20 hr when cells are 50-60% confluent, reporter gene constructs are transfected using LIPOFECTAMINE™ reagent (Invitrogen, Carlsbad, Calif.). The effects of the selective non-steroidal anti-inflammatory drugs on transactivation are investigated in Panc1 and L3.6pl cells co-transfected with different VEGF constructs (500 ng). […] For proteasome inhibitor experiments, cells will be co-treated with 2 μM lactacystin, and for electrophoretic mobility shift assay (EMSA), nuclear extracts from Panc1 and L3.6pl cells are isolated as described, and aliquots will be stored at −80° C. until used (Abdelrahim et al, 2004; Abdelrahim et al, 2005).
Previous studies have shown COX-2 inhibitors or small interfering RNAs for Sp proteins decreased vascular endothelial growth factor expression in colon and pancreatic cells (Abdelrahim et al, 2005; Baker et al, 2002; Masferrer et al, 2000; Bouwman et al, 2002). The effects of DMSO, 50 μM tolfenamic acid and 50 μM ampiroxicam on vascular endothelial growth factor expression were initially investigated in Panc-1 cells transfected with the pVEGF1 and pVEGF2 constructs, which contain −2018 to +50 and −131 to +54 VEGF promoter inserts, respectively (FIGS. 2A and 2B).

[6] = bi-weekly intraperitoneal from day 7, sacrificed day 35

Nc1ccn([C@@H]2O[C@H](CO)[C@@H](O)C2(F)F)c(=O)n1 [gemcitabine, 2′, 2′-difluorodeoxycitidine]
immunostaining for vascular endothelial growth factor in tumor sections [1]: relatively greater staining | Body Weight Median [1, 6]: 24 g | Incidence Liver metastasis [1, 6]: did not affect the incidence of liver metastasis | Pancreatic Tumor Incidence (positive mice/mice injected) [1, 6]: 10/10 | Tumor Volume Median [1, 6]: 1186.8 mm^3 | Tumor Weight Median [1, 6]: 0.8 g | Incidence Liver metastasis ([1]; bi-weekly intraperitoneal from day 7, sacrificed day 35, listed as Gemcitabine): 5/10

COc1ccc2cc([C@H](C)C(=O)O)ccc2c1 [naproxen]
Sp1, Sp3, and Sp4 protein expression ([2]; 48 hr): had no effect | Sp protein degradation ([2]; 150 μM, 48 hr (concentration of comparable growth inhibition)): only tolfenamic acid induced protein degradation | growth of Panc-1 pancreatic cancer cells (Panc-1 cells): decreased growth of Panc-1 pancreatic cancer cells | poly (ADP-ribose) polymerase cleavage [3]: only tolfenamic acid induced protein degradation and poly (ADP-ribose) polymerase cleavage

CC(C)Cc1ccc(C(C)C(=O)O)cc1 (centres unmarked) [ibuprofen]
Sp1, Sp3, and Sp4 protein expression ([2]; 48 hr): had no effect

O=C(O)CCC(=O)c1ccc(-c2ccccc2)cc1 [fenbuten]
Sp1, Sp3, and Sp4 protein expression ([2]; 48 hr): had no effect

COc1ccc2c(c1)c(CC(=O)OCC(=O)O)c(C)n2C(=O)c1ccc(Cl)cc1 [acemetacin]
Sp1, Sp3, and Sp4 protein expression ([2]; 48 hr): had no effect

CS(=O)(=O)Nc1ccc([N+](=O)[O-])cc1Oc1ccccc1 [nimesulide]
levels of Sp1, Sp4 and Sp3 [4]: decreased levels of Sp1 and Sp4 (but not Sp3)

N#Cc1ccc(C(c2ccc(C#N)cc2)n2cncn2)cc1 [letrozole]
Sp1, Sp3, and Sp4 protein expression ([2]; 48 hr): had no effect

CC(=O)N[C@@H](CSC(=O)[C@]1([C@@H](O)C(C)C)NC(=O)[C@H](C)[C@@H]1O)C(=O)O [lactacystin]
effect on tolfenamic acid-induced Sp1, Sp3, and Sp4 protein degradation ([2]; 2 μM lactacystin plus 50 μM tolfenamic acid, 48 hr): significant inhibition of Sp1, Sp3, and Sp4 protein degradation | effect on tolfenamic acid-decreased transactivation of pVEGF2 ([5]; Panc-1 cells co-treated with tolfenamic acid and proteasome inhibitor): blocked in cells co-treated with lactacystin

O=C(O)Cc1ccccc1Nc1c(Cl)cccc1Cl [diclofenac sodium]
order of potency for decreased expression of Sp1, Sp3, and Sp4 proteins ([2]; 48 hr): tolfenamic acid>diclofenac˜diflunisal | Sp1, Sp3, and Sp4 protein expression ([2]; 48 hr): decreased expression of Sp1, Sp3, and Sp4 proteins | luciferase activity, pVEGF1 and pVEGF2 constructs ([5]; Panc-1 cells, 50 μM): decreased transactivation | relative potency in Panc-1 growth inhibition (Panc-1 cells; compared with ampiroxicam and naproxen): exhibited higher potencies | growth of Panc-1 pancreatic cancer cells (Panc-1 cells): decreased growth of Panc-1 pancreatic cancer cells

O=C(O)c1cc(-c2ccc(F)cc2F)ccc1O [diflunisal]
order of potency for decreased expression of Sp1, Sp3, and Sp4 proteins ([2]; 48 hr): tolfenamic acid>diclofenac˜diflunisal | Sp1, Sp3, and Sp4 protein expression ([2]; 48 hr): decreased expression of Sp1, Sp3, and Sp4 proteins

Cc1ccc(C(=O)c2ccc(CC(=O)O)n2C)cc1 [tolmetin]
Sp1, Sp3, and Sp4 protein expression ([2]; 48 hr): had no effect
